Laboratory results: patent US20050209295A1, “Methimazole derivatives and tautomeric cyclic thiones to inhibit cell adhesion” (priority 2004, published 2005)

Key:
VCAM-1 = assay: TNF-alpha-induced VCAM-1 RNA levels in aortic endothelial cells (Northern blot); format: cell-based, human; settings: for % INHIBITION of TNF-alpha-induced VCAM-1 RNA levels: aortic endothelial cells, mean ± SD
Protocol: (§1) Cell culture and treatment of HAEC: Human aortic endothelial cells (HAEC; Cambrex Bio Science Walkersville, Inc., Walkersville, Md.) are cultured in M199 supplemented with 8% FBS, 100 μg/ml heparin, 10 ng/ml endothelial growth factor, 100 μg/ml hypothalamus extract, 2 mM L-glutamine, 1% non-essential amino acids, 100 units/ml penicillin and 100 μg/ml streptomycin. HAEC are subcultured on gelatin pre-coated: 96-well tissue culture plates (Corning Incorporated; Corning, N.Y.) for viability assays and ELISA; 100-mm tissue culture dishes (BD Falcon; Franklin Lakes, N.J.) for Northern blot analyses, Western blot analyses and EMSA; 35-mm tissue culture dishes (Corning) for adhesion assays and on 24-well tissue culture plates for luciferase promoter assays (BD Falcon). All experiments are performed with confluent HAEC monolayers. Unless noted otherwise, HAEC are treated with 25 ng/ml TNF-α, in the absence or presence of C-10 or 0.25% DMSO (carrier control for C-10), for 2-24 hrs. The concentration of DMSO is held constant at 0.25% (unless indicated otherwise) for all of the C-10 conditions.
HAEC are washed with PBS and total RNA extracted using a commercial kit (RNeasy Mini Kit; Qiagen Inc.; Valencia, Calif.). 12 μg of total RNA per lane is resolved on 1% denaturing agarose gels containing 0.66M formaldehyde. Gels are capillary blotted on Nytran membranes (Schleicher and Schuell Inc.; Keene, N.H.), UV cross-linked, and used for hybridization. The probe for IRF-1 has been previously described (33). The G3PDH cDNA is from Clontech (Palo Alto, Calif.). […]; cDNAs are labeled with α-^32P-dCTP using the Ladderman Labeling Kit (Takara Biochemical Inc.; Berkeley, Calif.) (33). Northern blots are developed using a BAS 1500 Bioimaging Analyzer (Fuji Photo Film Co., Ltd. Medical Systems USA Inc.; Stanford, Calif.). Each experiment is replicated at least twice.

ICAM-1 = assay: TNF-α induced ICAM-1 mRNA in HAEC (Northern blot); format: cell-based, human
Protocol: as §1
HAEC are washed with PBS and total RNA extracted using a commercial kit (RNeasy Mini Kit; Qiagen Inc.; Valencia, Calif.). 12 μg of total RNA per lane is resolved on 1% denaturing agarose gels containing 0.66M formaldehyde. […]

SMILES: Cn1c(-c2ccccc2)cnc1S [5-Phenylmethimazole]
- % INHIBITION of TNF-alpha-induced VCAM-1 RNA levels (VCAM-1; 5.0 mM): 99 ± 3%
- % INHIBITION of TNF-alpha-induced VCAM-1 RNA levels (VCAM-1; 10 :M): 75 ± 7%
- % INHIBITION of TNF-alpha-induced VCAM-1 RNA levels (VCAM-1; 100 :M): 99 ± 4%
- effect on TNF-α induced VCAM-1 mRNA expression (VCAM-1; 2 hr. TNF-α, HAEC, Northern blot): reduced, in a dose-dependent manner
- effect on TNF-α induced VCAM-1 mRNA (VCAM-1; 24 hr. TNF-α, HAEC, Northern blot): reduced, in a dose dependent manner
- effect on TNF-α induced ICAM-1 mRNA expression (ICAM-1; 2 hr. TNF-α): no effect
- effect on TNF-α induced ICAM-1 mRNA expression (ICAM-1; 24 hr. TNF-α): little to no effect
